Test results: patent publication US20050176806A1, “Use of substituted cyanopyrrolidines and combination preparations containing them for treating hyperlipidemia and associated diseases” (priority 2002, published 2005)

System: patients with a diagnosis of Type 2 diabetes mellitus
Test: Evaluation of the Effects of Compound IC on Human Lipid Profiles
Type: in vivo
Settings: compound IC 100 mg or 200 mg OD for four weeks, compared to placebo
Excerpt: Evaluation of the Effects of Compound IC on Human Lipid Profiles Sixty (60) patients comprised of male and non-fertile female patients aged at least 30 years with a diagnosis of Type 2 diabetes mellitus of at least three months duration, who have been treated with diet alone for at least one month prior to study entry were selected. The study was broken down into two periods. Period 1 was the four weeks prior to the beginning of the study, with period 2 being four weeks and being the actual study period when patients were treated with compound IC. Accordingly, study entry was Week −4 and the endpoint was after the fourth week of Period 2. Patients were randomized in a ratio of 1:1:1 as follows: compound IC at 200 mg once a day (OD), compound IC at 100 mg OD and placebo. The patients received compound IC 30 minutes before breakfast. There were 5 test days in the study. Patients attended as outpatients for fasting blood sampling at Week −4 (study entry), Week −2 and Week 2 and as inpatients for 24 hours on Week 0 (=baseline) and Week 4 (=endpoint). On the two inpatient test days, the total caloric intake of breakfast, lunch and dinner was standardized and standard test meals were administered in place of breakfast and dinner. Triglycerides, total cholesterol and lipid fractions (LDL, VLDL and HDL) were measured during 24 hours following the breakfast standard meal. […] On the two inpatient test days, patients fasted for at least 7 hours, i.e., no food or drinks (except water) after midnight on the day before the scheduled visit, and attended the clinic at 07.00 h. On each of the two test days, the total caloric intake during 24 hours was standardized and standard test meals were administered for breakfast (about 08.00 h) and dinner (about 18.00 h). Lunch was taken at approximately 13.00 h. On Day 1, no compound IC was administered but at Week 4, patients took compound IC as normal, 30 minutes before the standard breakfast. Triglycerides, total cholesterol and lipid fractions (LDL, VLDL and HDL) were evaluated. Triglycerides, total cholesterol and HDL were measured and LDL and VLDL calculated according to the method of Friedewald et al., “Estimation of the Concentration of Low-Density Lipoprotein Cholesterol Without the Use of the Preparative Centrifuge”, Clin. Chem., Vol. 18, No. 6, pp. 499-502 (1972).

[1] = calculated according to Friedewald et al.
[2] = measured during 24 hours following breakfast standard meal

N#C[C@@H]1CCCN1C(=O)CNC12CC3CC(CC(O)(C3)C1)C2 [compound IC]
markedly lowered: levels of LDL [1] | levels of VLDL [1] | levels of total cholesterol [2] | levels of triglyceride [2]
